Laboratory results from ChEMBL document CHEMBL3044777, “Weed control and sweet maize (Zea mays L.) yield as affected by pyroxasulfone dose” (2011).

Key:
Assay type in all cases: functional
Digitaria = assay: Herbicide activity against Digitaria assessed as weed control at 274 g/ha in presence of 2% organic matter on soil
Digitaria sanguinalis = assay: Herbicide activity against Digitaria sanguinalis assessed as weed control at 31.25 g/ha
Abutilon theophrasti = assay: Herbicide activity against Abutilon theophrasti (velvetleaf) assessed as weed control at 31.25 g/ha
Echinochloa crus-galli = assay: Herbicide activity against Echinochloa crus-galli (barnyard grass) assessed as weed control at 31.25 g/ha
Amaranthus palmeri [1] = assay: Herbicide activity against Amaranthus […] (Moq.) Sauer. assessed as weed control at 152 g/ha
Amaranthus palmeri [2] = assay: Herbicide activity against Amaranthus palmeri S.Watson assessed as weed control at 125 g/ha
Amaranthus = assay: Herbicide activity against Amaranthus sp. assessed as weed control at 1000 g/ha
Setaria viridis = assay: Herbicide activity against Setaria viridis (green foxtail) assessed as weed control measured after pre-emergence treatment in southwestern ontario
Chenopodium album = assay: Herbicide activity against Chenopodium album assessed as weed control measured after pre-emergence treatment in southwestern ontario
Amaranthus retroflexus = assay: Herbicide activity against Amaranthus retroflexus assessed as weed control measured after pre-emergence treatment in southwestern ontario

## Cn1nc(C(F)(F)F)c(CS(=O)(=O)C2=NOC(C)(C)C2)c1OC(F)F [PYROXASULFONE]
Digitaria
  Activity: 90%
Digitaria sanguinalis
  Activity: 90%
Abutilon theophrasti
  Activity: 90%
Echinochloa crus-galli
  Activity: 90%
Amaranthus palmeri [1]
  Activity: 90%
Amaranthus palmeri [2]
  Activity: 95%
Amaranthus
  Activity: 90%
Setaria viridis
  I90: 111 g/ha
Chenopodium album
  I90: 499 g/ha
Amaranthus retroflexus
  I90: 93 g/ha
